Values quoted from earlier work as cited in patent publication US20240122955A1, “ORAL DELIVERY” (GUANGZHOU DAZHOU BIOMEDICINE LTD., priority 2021, published 2024).

Experiments:
SGLT2 = biological target: T1, SGLT2 (Homo sapiens, UniProt P31639); details: among the three FDA approved drugs canagliflozin, dapagliflozin, empagliflozin
T1 sequence (P31639 1-672): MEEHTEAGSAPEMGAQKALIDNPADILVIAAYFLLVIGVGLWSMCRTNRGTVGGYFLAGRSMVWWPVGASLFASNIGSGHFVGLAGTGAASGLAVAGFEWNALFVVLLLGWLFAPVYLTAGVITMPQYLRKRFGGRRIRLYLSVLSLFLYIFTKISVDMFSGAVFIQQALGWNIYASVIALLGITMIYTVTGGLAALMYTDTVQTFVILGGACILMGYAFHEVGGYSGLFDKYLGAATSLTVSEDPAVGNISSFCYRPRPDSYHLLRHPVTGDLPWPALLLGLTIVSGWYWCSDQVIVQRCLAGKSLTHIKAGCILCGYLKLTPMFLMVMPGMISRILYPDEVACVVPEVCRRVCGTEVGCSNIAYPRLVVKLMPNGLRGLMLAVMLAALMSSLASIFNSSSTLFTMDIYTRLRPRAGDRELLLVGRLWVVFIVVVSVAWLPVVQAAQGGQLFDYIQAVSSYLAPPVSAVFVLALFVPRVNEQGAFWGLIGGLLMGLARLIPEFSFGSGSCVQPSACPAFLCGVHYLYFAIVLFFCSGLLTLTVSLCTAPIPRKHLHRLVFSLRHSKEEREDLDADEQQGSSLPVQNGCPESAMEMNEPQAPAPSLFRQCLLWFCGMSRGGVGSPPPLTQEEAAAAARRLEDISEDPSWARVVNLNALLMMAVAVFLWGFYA

[1] = T2D patients with high risk of cardiovascular disease events, versus the placebo group

| Compound | selectivity for SGLT2 compared to SGLT1 (SGLT2) | relative risk reduction in death from cardiovascular causes [1] [%] |
| --- | --- | --- |
| Cc1ccc([C@@H]2O[C@H](CO)[C@@H](O)[C@H](O)[C@H]2O)cc1Cc1ccc(-c2ccc(F)cc2)s1 [canagliflozin] | least selective |  |
| OCC1O[C@@H](c2ccc(Cl)c(Cc3ccc(O[C@@H]4CCOC4)cc3)c2)C(O)C(O)[C@@H]1O (stereo partly drawn) [empagliflozin] | greatest selectivity | 38 |
